We go through 1 compound from US20160038519A1, “ADMINISTRATION OF KARENITECIN FOR THE TREATMENT OF ADVANCED OVARIAN CANCER, INCLUDING CHEMOTHERAPY-RESISTANT AND/OR THE MUCINOUS ADENOCARCINOMA SUB-TYPES” (BioNumerik Pharmaceuticals, Inc., priority 2014, published 2016).

For data set [1], the system named is mucinous cell lines (JHOM2B, OMC3, and COV644). In words: SRB assay, joint statements for the mucinous cell lines incl. effect of BNP7787 on BNP1350-induced cytotoxicity. Type of data set: cell-based, human. Here is the method: In vitro studies were conducted in human mucinous ovarian cancer cell lines including JHOM2B, OMC3, and COV644. In one series of experiments, the dose response curves for BNP1350 (also known as Karenitecin), SN-38 (Irinotecan), and Topotecan were obtained and IC50 values were determined. In a second series of experiments, the effect of BNP7787 (2,2′-dithio-bis-ethane sulfonate; Tavocept) on BNP1350-induced cytotoxicity at selected BNP1350 concentrations was examined.
The JHOM2B and OMC3 cell lines were purchased from Riken Cell Bank (Japan). The COV644 cell line was purchased from SigmaAldrich. Cells were maintained as monolayered cultures in T-75 flasks and then seeded to microtiter plate wells for experiments. Population doubling-times for these three cell lines were long (i.e., exceeding 40 hours, and for some of the cell lines approaching 96 hours); therefore, the Applicants conducted initial pilot experiments and determined optimal seeding density to obtain A570 values in untreated controls that would fall within the linear range of the SRB assay after seven (7) total days of cell growth. […]
The cells were manipulated in a Microzone laminar flow hood traditionally used for maintaining aseptic environments around automated instrumentation such as microplate robots, and the like. […] Cells were counted using a ViCell counter (Beckman-Coulter). An automated plate washer/stacker (ELx405/BioStak from BioTek Instruments) and a microplate reader (SpectraMax Plus from Molecular Devices) were used for conducting the SRB assay and determining A570 values for wells in the plates and the percentage of control values. Prior to SRB assays, cell viability was monitored by evaluation of microtiter plate wells. […]
The sulforhodamine B (SRB) cytotoxicity assay was used to assess cell survival. […] Plates were agitated (gently) for 5 minutes and the absorbance values of the SRB dye-protein adduct at 570 nanometers (A570) were determined using an automated microtiter plate reader (SpectraMax Plus, Molecular Devices). […]
In general terms: Sulforhodamine B stains cellular protein and so reports cell mass.

The test system of data set [2] is human breast, ovarian and lymphoma cancer cell lines. The experiment in a line: Paclitaxel induced apoptosis (PARP cleavage, Bcl-2 phosphorylation, DNA laddering). Type of data set: cell-based. The source says:
(§1) Tavocept mediates the non-enzymatic xenobiotic modification of sulfur-containing amino acid residues (e.g., cysteine) on proteins. As an engineered, non-naturally occurring agent (i.e., xenobiotic), Tavocept is autocatalytic and requires no protein cofactor to cause the xenobiotic modification of cysteine, but appears to be specific for cysteine residues located within a particular structural context (i.e., not all cysteines in a protein are so modified). Tavocept-mediated, xenobiotic modification represents a novel mechanism of action for a cancer treating agent and can be compared, to a degree, with post-translational modifications of cysteine residues in proteins (see, Table 3, below). By way of non-limiting example, some of the important elements of Tavocept's effectiveness as a compound in the treatment of cancer are its selectivity for normal cells versus cancer cells and its absence of interference with the anti-cancer activity of cancer treating agents.

For a further data set, the system named is human cancer cell lines. In words: Paclitaxel- and platinum-induced cytotoxicity. The format is cell-based.
Excerpt: as §1

`O=S(=O)([O-])CCSSCCS(=O)(=O)[O-].[Na+].[Na+]` [BNP7787, 2,2′-dithio-bis-ethane sulfonate]: the “Effect on BNP1350-induced cytotoxicity” value in data set [1] (BNP7787 1 or 10 mM added simultaneously with approximate IC50 and IC25 values of BNP1350, each cell line) was “no notable effect”. The “Effect on cell survival as single agent” value in data set [1] (BNP7787 alone, 1 and 10 mM) is on record as “did not affect cell survival”. Besides, the “Interference with paclitaxel induced apoptosis” value in data set [2] is “does not interfere”. Besides, the “Interference with paclitaxel- and platinum-induced cytotoxicity” value with human cancer cell lines is listed as “not to interfere”.
